The nature of this series: Example 5: pilot device, degradation of four pesticides (FIG. 6). Type of series: physicochemical. To be noted: initial boscalid 250, thiacloprid 100, fludioxonil 100, pyraclostrobin 125 μg/l; initial hydrogen peroxide 2 μg/l; 6 m^3/h, five lamps on. The text has this:
A semi-industrial pilot device in accordance with one aspect of the invention comprises a tank for recirculating water to be treated of a volume of 1000 l, a circulation pump ensuring a circulation flow of the water to be treated in a sanitising device with a flow rate between 4 m^3 to 8 m^3/h. The sanitising device comprises a photolysis chamber comprising an inlet for water from the recirculation tank and an outlet for sanitised water directed to the recirculation tank. The photolysis chamber is formed of a rigid tubular envelope, of which the external wall is opaque to light and forming an inner space suitable for receiving five fluorescent tubes with a longitudinal axis extending in parallel with the longitudinal axis of the rigid tubular envelope. The inner volume of the decontamination reactor is in the order of […].
The five fluorescent tubes are tubes of 200 W emitting light at a wavelength of 254 nm and arranged longitudinally in the tubular envelope at the five points of a regular pentagon and in contact with the water to be treated flowing in the photolysis chamber. In this configuration of the sanitising device, the water to be sanitised flowing in contact with the five fluorescent tubes is subjected to substantially homogeneous illumination in the order of 500 mJ/cm^2 for a circulation flow rate of water to be sanitised in the order of 6 m^3/h. The semi-industrial pilot device also comprises a tank for storing an aqueous solution of hydrogen peroxide (H2O2) provided with a pump for distributing said solution in the circulation flow of water to be sanitised issuing into the circuit of water to be sanitised upstream of and in proximity to the photolysis chamber. The concentration of the hydrogen peroxide in the aqueous solution of hydrogen peroxide is between 2 m g/l and 13 mg/l. The set-point flow rate of the pump for distributing solution of H2O2 is kept at 4 l/h.
A study was carried out in a semi-industrial pilot device as described above on the degradation of boscalid, thiacloprid, fludioxonil and pyraclostrobin. […]

Turning to `N#C/N=C1\SCCN1Cc1ccc(Cl)nc1` [thiacloprid], the “degraded within 1 hour” value is “more than 95%”.
Next, `N#Cc1c[nH]cc1-c1cccc2c1OC(F)(F)O2` [fludioxonil]: 90%; `COC(=O)N(OC)c1ccccc1COc1ccn(-c2ccc(Cl)cc2)n1` [pyraclostrobin]: 85%.

The values above are taken from US10919785B2, “Hydraulic conveyor of floating objects provided with a device for sanitising conveying composition, plant provided with such a conveyor and sanitising method” (MAF AGROBOTIC, priority 2016, dated 2021).
